Tested on: A549
Assay: Cytotoxicity against human A549 cells measured after 24 hrs
Assay type: functional, cell-based
Conditions: A549, 24 h

Work on `CC(=O)O[C@H]1C(=O)[C@@]2(C)[C@H]([C@H](OC(=O)c3ccccc3)[C@]3(O)C[C@H](OC(=O)[C@H](O)[C@@H](NC(=O)c4ccccc4)c4ccccc4)C(C)=C1C3(C)C)[C@]1(OC(C)=O)CO[C@@H]1C[C@@H]2O` [PACLITAXEL] yielded an IC50 of 4.1 nM.
